Like-named read-outs stand apart in the source and are kept apart here.
Assays:
[1] = molecular target: AChE from Torpedo californica (TcAChE); conditions: cited from earlier work
[2] = tested on: AChE; conditions: in vivo, rats, mice and rabbits; cited from earlier work
[3] = tested on: AChE; conditions: cited from earlier work
[4] = molecular target: human brain AChE (HuAChE); conditions: cited from earlier work
[5] = molecular target: T1, TcAChE (Tetronarce californica, UniProt P04058); assay: Pre-steady-state analysis by global fitting of full progress curves (ENZO); type: biochemical, Torpedo californica
T1 construct: TcAChE was isolated and purified as previously described; from tissue
T1 sequence (P04058 22-586): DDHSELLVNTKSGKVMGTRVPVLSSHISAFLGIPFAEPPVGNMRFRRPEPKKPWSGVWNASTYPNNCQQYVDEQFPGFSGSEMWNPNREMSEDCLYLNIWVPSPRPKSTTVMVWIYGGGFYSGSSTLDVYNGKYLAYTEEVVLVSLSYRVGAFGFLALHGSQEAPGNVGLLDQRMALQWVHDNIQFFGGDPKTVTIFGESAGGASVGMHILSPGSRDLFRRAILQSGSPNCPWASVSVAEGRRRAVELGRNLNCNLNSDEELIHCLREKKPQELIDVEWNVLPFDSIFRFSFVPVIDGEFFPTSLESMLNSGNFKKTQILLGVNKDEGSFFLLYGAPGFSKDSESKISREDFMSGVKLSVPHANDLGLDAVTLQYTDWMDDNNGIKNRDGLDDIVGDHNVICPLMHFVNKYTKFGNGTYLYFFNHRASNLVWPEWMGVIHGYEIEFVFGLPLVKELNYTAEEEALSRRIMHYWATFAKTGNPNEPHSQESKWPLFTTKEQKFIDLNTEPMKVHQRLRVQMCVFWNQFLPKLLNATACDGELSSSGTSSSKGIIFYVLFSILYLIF

In the case of `COc1ccc2c3c1O[C@H]1C[C@@H](O)C=C[C@@]31CCN(C)C2` [GAL, galantamine], the Ki [1] is listed as 200 nM, the “times weaker AChE inhibitor than donepezil” value [2] is listed as 3–15 times and the IC50 ([3]; highest of 15 BRENDA entries) is listed as […]. For the same compound, the IC50 ([3]; lowest of 15 BRENDA entries) was […], the Ki ([4]; human brain AChE, competitive inhibition, 1976) was 52 nM and the Ki ([4]; recombinant form of HuAChE, 2003) was 520 nM.
For `C[N+](C)(C)CCSSc1ccc([N+](=O)[O-])c(C(=O)[O-])c1` [thiocholine-TNB, thiocholine-thionitrobenzoic acid], the Ki ([5]; TcAChE 200 pM, ATCh 35 µM, initial thiocholine-TNB 0 to ~150 µM, competitive, read-out: Ki for product inhibition) was 21500 ± 380 nM and the inhibition mechanism ([5]; fit of full progress curves) was “competitive inhibition mechanism”.
